Source: patent US10251395B2, “Substituted furano-/thienocycloalkylamino-2-pyrimidine derivatives and use thereof for controlling undesired plant growth” (Bayer CropScience Aktiengesellschaft, priority 2015, dated 2019)

Tests used:
Type in all cases: in vivo
Amaranthus retroflexus [1] = test: Post-emergence herbicidal effect; conditions: assessed visually after about 3 weeks vs untreated controls
Procedure, shortened: (§1)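 Percent herbicidal action was judged by eye roughly 3 weeks post-application, 0% matching control plants and 100% meaning plant death. Seedlings, greenhouse-grown in sandy loam, received the spray at one leaf.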

Abutilon theophrasti [2] = test: Post-emergence herbicidal effect; conditions: assessed visually after about 3 weeks vs untreated controls
Procedure, shortened: as §1

Alopecurus myosuroides [3] = test: Post-emergence herbicidal effect; conditions: 320 g/ha, assessed visually after about 3 weeks vs untreated controls
Procedure, shortened: as §1

Stellaria media [4] = test: Post-emergence herbicidal effect; conditions: assessed visually after about 3 weeks vs untreated controls
Procedure, shortened: as §1

Ipomoea purpurea [5] = test: Post-emergence herbicidal effect; conditions: assessed visually after about 3 weeks vs untreated controls
Procedure, shortened: as §1

Setaria viridis [6] = test: Post-emergence herbicidal effect; conditions: assessed visually after about 3 weeks vs untreated controls
Procedure, shortened: as §1

Viola tricolor [7] = test: Post-emergence herbicidal effect; conditions: assessed visually after about 3 weeks vs untreated controls
Procedure, shortened: as §1

Lolium multiflorum [8] = test: Post-emergence herbicidal effect; conditions: 320 g/ha, assessed visually after about 3 weeks vs untreated controls
Procedure, shortened: as §1

Veronica persica [9] = test: Post-emergence herbicidal effect; conditions: assessed visually after about 3 weeks vs untreated controls
Procedure, shortened: as §1

Matricaria inodora [10] = test: Post-emergence herbicidal effect; conditions: assessed visually after about 3 weeks vs untreated controls
Procedure, shortened: as §1

Polygonum convolvulus [11] = test: Post-emergence herbicidal effect; conditions: assessed visually after about 3 weeks vs untreated controls
Procedure, shortened: as §1

Echinochloa crus-galli [12] = test: Post-emergence herbicidal effect; conditions: assessed visually after about 3 weeks vs untreated controls
Procedure, shortened: as §1

Amaranthus retroflexus [13] = test: Pre-emergence herbicidal effect; conditions: scored visually after 3 weeks
Procedure, shortened: (§2)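 Sowing in sandy loam, covering with soil, then surface application of compound as aqueous suspension or emulsion (600 to 800 L/ha, 0.2% wetting agent). Greenhouse growth under good conditions; visual % damage scored at 3 weeks versus untreated pots.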

Avena fatua = test: Pre-emergence herbicidal effect; conditions: Dosage 320 g/ha, scored visually after 3 weeks
Procedure, shortened: as §2

Abutilon theophrasti [14] = test: Pre-emergence herbicidal effect; conditions: scored visually after 3 weeks
Procedure, shortened: as §2

Alopecurus myosuroides [15] = test: Pre-emergence herbicidal effect; conditions: scored visually after 3 weeks
Procedure, shortened: as §2

Stellaria media [16] = test: Pre-emergence herbicidal effect; conditions: scored visually after 3 weeks
Procedure, shortened: as §2

Ipomoea purpurea [17] = test: Pre-emergence herbicidal effect; conditions: scored visually after 3 weeks
Procedure, shortened: as §2

Setaria viridis [18] = test: Pre-emergence herbicidal effect; conditions: scored visually after 3 weeks
Procedure, shortened: as §2

Viola tricolor [19] = test: Pre-emergence herbicidal effect; conditions: scored visually after 3 weeks
Procedure, shortened: as §2

Veronica persica [20] = test: Pre-emergence herbicidal effect; conditions: scored visually after 3 weeks
Procedure, shortened: as §2

Matricaria inodora [21] = test: Pre-emergence herbicidal effect; conditions: scored visually after 3 weeks
Procedure, shortened: as §2

Polygonum convolvulus [22] = test: Pre-emergence herbicidal effect; conditions: scored visually after 3 weeks
Procedure, shortened: as §2

Echinochloa crus-galli [23] = test: Pre-emergence herbicidal effect; conditions: scored visually after 3 weeks
Procedure, shortened: as §2

Cyperus esculentus = test: Pre-emergence herbicidal effect; conditions: scored visually after 3 weeks
Procedure, shortened: as §2

Lolium multiflorum [24] = test: Pre-emergence herbicidal effect; conditions: Dosage 320 g/ha, scored visually after 3 weeks
Procedure, shortened: as §2

Cc1cc2c(s1)CCCC2Nc1ncc(C(F)(F)F)c(N)n1 (racemic) [compound 61]
80%: post-emergence efficacy SETVI (Setaria viridis [6]; 80 g/ha) | post-emergence efficacy POLCO (Polygonum convolvulus [11]; 80 g/ha) | AVEFA pre-emergence efficacy (herbicidal activity) (Avena fatua) | ALOMY pre-emergence efficacy (herbicidal activity) (Alopecurus myosuroides [15]; Dosage 80 g/ha) | VIOTR pre-emergence efficacy (herbicidal activity) (Viola tricolor [19]; Dosage 80 g/ha)
90%: post-emergence efficacy AMARE (Amaranthus retroflexus [1]; 80 g/ha) | post-emergence efficacy AMARE (Amaranthus retroflexus [1]; 320 g/ha) | post-emergence efficacy ABUTH (Abutilon theophrasti [2]; 80 g/ha) | post-emergence efficacy ABUTH (Abutilon theophrasti [2]; 320 g/ha) | post-emergence efficacy PHBPU (Ipomoea purpurea [5]; 80 g/ha) | post-emergence efficacy SETVI (Setaria viridis [6]; 320 g/ha) | post-emergence efficacy VIOTR (Viola tricolor [7]; 80 g/ha) | post-emergence efficacy VIOTR (Viola tricolor [7]; 320 g/ha) | post-emergence efficacy LOLMU (Lolium multiflorum [8]) | post-emergence efficacy POLCO (Polygonum convolvulus [11]; 320 g/ha) | STEME pre-emergence efficacy (herbicidal activity) (Stellaria media [16]; Dosage 80 g/ha) | PHBPU pre-emergence efficacy (herbicidal activity) (Ipomoea purpurea [17]; Dosage 320 g/ha) | POLCO pre-emergence efficacy (herbicidal activity) (Polygonum convolvulus [22]; Dosage 80 g/ha) | POLCO pre-emergence efficacy (herbicidal activity) (Polygonum convolvulus [22]; Dosage 320 g/ha) | ECHCG pre-emergence efficacy (herbicidal activity) (Echinochloa crus-galli [23]; Dosage 80 g/ha) | ECHCG pre-emergence efficacy (herbicidal activity) (Echinochloa crus-galli [23]; Dosage 320 g/ha)
30%: ABUTH pre-emergence efficacy (herbicidal activity) (Abutilon theophrasti [14]; Dosage 80 g/ha)
100%: post-emergence efficacy ALOMY (Alopecurus myosuroides [3]) | post-emergence efficacy STEME (Stellaria media [4]; 80 g/ha) | post-emergence efficacy STEME (Stellaria media [4]; 320 g/ha) | post-emergence efficacy PHBPU (Ipomoea purpurea [5]; 320 g/ha) | post-emergence efficacy VERPE (Veronica persica [9]; 80 g/ha) | post-emergence efficacy VERPE (Veronica persica [9]; 320 g/ha) | post-emergence efficacy MATIN (Matricaria inodora [10]; 320 g/ha) | post-emergence efficacy ECHCG (Echinochloa crus-galli [12]; 80 g/ha) | post-emergence efficacy ECHCG (Echinochloa crus-galli [12]; 320 g/ha) | AMARE pre-emergence efficacy (herbicidal activity) (Amaranthus retroflexus [13]; Dosage 80 g/ha) | AMARE pre-emergence efficacy (herbicidal activity) (Amaranthus retroflexus [13]; Dosage 320 g/ha) | ABUTH pre-emergence efficacy (herbicidal activity) (Abutilon theophrasti [14]; Dosage 320 g/ha) | ALOMY pre-emergence efficacy (herbicidal activity) (Alopecurus myosuroides [15]; Dosage 320 g/ha) | STEME pre-emergence efficacy (herbicidal activity) (Stellaria media [16]; Dosage 320 g/ha) | SETVI pre-emergence efficacy (herbicidal activity) (Setaria viridis [18]; Dosage 80 g/ha) | SETVI pre-emergence efficacy (herbicidal activity) (Setaria viridis [18]; Dosage 320 g/ha) | VIOTR pre-emergence efficacy (herbicidal activity) (Viola tricolor [19]; Dosage 320 g/ha) | VERPE pre-emergence efficacy (herbicidal activity) (Veronica persica [20]; Dosage 80 g/ha) | VERPE pre-emergence efficacy (herbicidal activity) (Veronica persica [20]; Dosage 320 g/ha) | MATIN pre-emergence efficacy (herbicidal activity) (Matricaria inodora [21]; Dosage 80 g/ha) | MATIN pre-emergence efficacy (herbicidal activity) (Matricaria inodora [21]; Dosage 320 g/ha)

Cc1cc2c(s1)CCCC2Nc1nc(N)c(S(C)(=O)=O)c(C(F)F)n1 (racemic) [compound 287]
100%: post-emergence efficacy AMARE (Amaranthus retroflexus [1]; 320 g/ha) | post-emergence efficacy STEME (Stellaria media [4]; 320 g/ha) | post-emergence efficacy VIOTR (Viola tricolor [7]; 80 g/ha) | post-emergence efficacy VIOTR (Viola tricolor [7]; 320 g/ha) | post-emergence efficacy VERPE (Veronica persica [9]; 320 g/ha) | CYPES pre-emergence efficacy (herbicidal activity) (Cyperus esculentus; Dosage 320 g/ha) | STEME pre-emergence efficacy (herbicidal activity) (Stellaria media [16]; Dosage 320 g/ha) | PHBPU pre-emergence efficacy (herbicidal activity) (Ipomoea purpurea [17]; Dosage 320 g/ha) | VIOTR pre-emergence efficacy (herbicidal activity) (Viola tricolor [19]; Dosage 320 g/ha) | VERPE pre-emergence efficacy (herbicidal activity) (Veronica persica [20]; Dosage 80 g/ha) | VERPE pre-emergence efficacy (herbicidal activity) (Veronica persica [20]; Dosage 320 g/ha) | MATIN pre-emergence efficacy (herbicidal activity) (Matricaria inodora [21]; Dosage 80 g/ha) | MATIN pre-emergence efficacy (herbicidal activity) (Matricaria inodora [21]; Dosage 320 g/ha)
90%: post-emergence efficacy AMARE (Amaranthus retroflexus [1]; 80 g/ha) | STEME pre-emergence efficacy (herbicidal activity) (Stellaria media [16]; Dosage 80 g/ha) | PHBPU pre-emergence efficacy (herbicidal activity) (Ipomoea purpurea [17]; Dosage 80 g/ha) | VIOTR pre-emergence efficacy (herbicidal activity) (Viola tricolor [19]; Dosage 80 g/ha)
80%: post-emergence efficacy ABUTH (Abutilon theophrasti [2]; 80 g/ha) | post-emergence efficacy ABUTH (Abutilon theophrasti [2]; 320 g/ha) | post-emergence efficacy STEME (Stellaria media [4]; 80 g/ha) | post-emergence efficacy SETVI (Setaria viridis [6]; 320 g/ha) | post-emergence efficacy VERPE (Veronica persica [9]; 80 g/ha) | CYPES pre-emergence efficacy (herbicidal activity) (Cyperus esculentus; Dosage 80 g/ha)

CC(=NO)c1cnc(NC2CCCc3sc(C)cc32)nc1N (stereo not shown) [compound 286]
60%: ABUTH pre-emergence efficacy (herbicidal activity) (Abutilon theophrasti [14]; Dosage 320 g/ha) | ALOMY pre-emergence efficacy (herbicidal activity) (Alopecurus myosuroides [15]; Dosage 320 g/ha) | STEME pre-emergence efficacy (herbicidal activity) (Stellaria media [16]; Dosage 80 g/ha)
100%: post-emergence efficacy STEME (Stellaria media [4]; 320 g/ha) | post-emergence efficacy VERPE (Veronica persica [9]; 320 g/ha) | AMARE pre-emergence efficacy (herbicidal activity) (Amaranthus retroflexus [13]; Dosage 320 g/ha) | STEME pre-emergence efficacy (herbicidal activity) (Stellaria media [16]; Dosage 320 g/ha) | PHBPU pre-emergence efficacy (herbicidal activity) (Ipomoea purpurea [17]; Dosage 80 g/ha) | SETVI pre-emergence efficacy (herbicidal activity) (Setaria viridis [18]; Dosage 320 g/ha) | VIOTR pre-emergence efficacy (herbicidal activity) (Viola tricolor [19]; Dosage 80 g/ha) | VIOTR pre-emergence efficacy (herbicidal activity) (Viola tricolor [19]; Dosage 320 g/ha) | VERPE pre-emergence efficacy (herbicidal activity) (Veronica persica [20]; Dosage 80 g/ha) | VERPE pre-emergence efficacy (herbicidal activity) (Veronica persica [20]; Dosage 320 g/ha) | MATIN pre-emergence efficacy (herbicidal activity) (Matricaria inodora [21]; Dosage 320 g/ha) | POLCO pre-emergence efficacy (herbicidal activity) (Polygonum convolvulus [22]; Dosage 320 g/ha) | ECHCG pre-emergence efficacy (herbicidal activity) (Echinochloa crus-galli [23]; Dosage 320 g/ha)
90%: post-emergence efficacy AMARE (Amaranthus retroflexus [1]; 80 g/ha) | post-emergence efficacy AMARE (Amaranthus retroflexus [1]; 320 g/ha) | post-emergence efficacy ABUTH (Abutilon theophrasti [2]; 80 g/ha) | post-emergence efficacy ABUTH (Abutilon theophrasti [2]; 320 g/ha) | post-emergence efficacy VIOTR (Viola tricolor [7]; 80 g/ha) | post-emergence efficacy VIOTR (Viola tricolor [7]; 320 g/ha) | post-emergence efficacy MATIN (Matricaria inodora [10]; 320 g/ha)
70%: post-emergence efficacy STEME (Stellaria media [4]; 80 g/ha) | post-emergence efficacy PHBPU (Ipomoea purpurea [5]; 80 g/ha) | post-emergence efficacy PHBPU (Ipomoea purpurea [5]; 320 g/ha) | ABUTH pre-emergence efficacy (herbicidal activity) (Abutilon theophrasti [14]; Dosage 80 g/ha) | CYPES pre-emergence efficacy (herbicidal activity) (Cyperus esculentus; Dosage 320 g/ha)
80%: post-emergence efficacy MATIN (Matricaria inodora [10]; 80 g/ha) | LOLMU pre-emergence efficacy (herbicidal activity) (Lolium multiflorum [24]) | MATIN pre-emergence efficacy (herbicidal activity) (Matricaria inodora [21]; Dosage 80 g/ha)
50%: PHBPU pre-emergence efficacy (herbicidal activity) (Ipomoea purpurea [17]; Dosage 320 g/ha)

CC(=O)c1cnc(NC2CCCc3sccc32)nc1N (stereo not shown) [compound 301]
60%: post-emergence efficacy STEME (Stellaria media [4]; 80 g/ha) | post-emergence efficacy STEME (Stellaria media [4]; 320 g/ha) | post-emergence efficacy MATIN (Matricaria inodora [10]; 320 g/ha)
100%: post-emergence efficacy VERPE (Veronica persica [9]; 320 g/ha) | STEME pre-emergence efficacy (herbicidal activity) (Stellaria media [16]; Dosage 80 g/ha) | STEME pre-emergence efficacy (herbicidal activity) (Stellaria media [16]; Dosage 320 g/ha) | PHBPU pre-emergence efficacy (herbicidal activity) (Ipomoea purpurea [17]; Dosage 80 g/ha) | PHBPU pre-emergence efficacy (herbicidal activity) (Ipomoea purpurea [17]; Dosage 320 g/ha) | SETVI pre-emergence efficacy (herbicidal activity) (Setaria viridis [18]; Dosage 80 g/ha) | SETVI pre-emergence efficacy (herbicidal activity) (Setaria viridis [18]; Dosage 320 g/ha) | VIOTR pre-emergence efficacy (herbicidal activity) (Viola tricolor [19]; Dosage 80 g/ha) | VIOTR pre-emergence efficacy (herbicidal activity) (Viola tricolor [19]; Dosage 320 g/ha) | LOLMU pre-emergence efficacy (herbicidal activity) (Lolium multiflorum [24]) | VERPE pre-emergence efficacy (herbicidal activity) (Veronica persica [20]; Dosage 80 g/ha) | VERPE pre-emergence efficacy (herbicidal activity) (Veronica persica [20]; Dosage 320 g/ha) | MATIN pre-emergence efficacy (herbicidal activity) (Matricaria inodora [21]; Dosage 80 g/ha) | MATIN pre-emergence efficacy (herbicidal activity) (Matricaria inodora [21]; Dosage 320 g/ha) | ECHCG pre-emergence efficacy (herbicidal activity) (Echinochloa crus-galli [23]; Dosage 320 g/ha)
70%: CYPES pre-emergence efficacy (herbicidal activity) (Cyperus esculentus; Dosage 320 g/ha) | ECHCG pre-emergence efficacy (herbicidal activity) (Echinochloa crus-galli [23]; Dosage 80 g/ha)
80%: post-emergence efficacy AMARE (Amaranthus retroflexus [1]; 80 g/ha) | post-emergence efficacy AMARE (Amaranthus retroflexus [1]; 320 g/ha) | post-emergence efficacy VIOTR (Viola tricolor [7]; 80 g/ha) | ALOMY pre-emergence efficacy (herbicidal activity) (Alopecurus myosuroides [15]; Dosage 320 g/ha)
90%: post-emergence efficacy PHBPU (Ipomoea purpurea [5]; 320 g/ha) | post-emergence efficacy VIOTR (Viola tricolor [7]; 320 g/ha)
